Experimental data published in patent publication US20160108027A1, “SUBSTITUTED BENZOXAZOLES” (BAYER PHARMA AKTIENGESELLSCHAFT, priority 2013, published 2016).

Columns and labels:
thrombin [1] = target: T1, thrombin (Homo sapiens, UniProt P00734); assay: Measurement of the thrombin inhibition in buffer; type: biochemical; conditions: human thrombin 0.06 nmol/l in Tris buffer pH 7.4, 22° C., substrate Boc-Asp(OBzl)-Pro-Arg-AMC; in some cases means of individual determinations
In short: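 Compound pre-incubated 15 min at 22° C with 0.06 nmol/l human thrombin in 50 mmol/l Tris, 100 mmol/l NaCl, 0.1% BSA, pH 7.4, then 5 μmol/l Boc-Asp(OBzl)-Pro-Arg-AMC added for 30 min. AMC fluorescence read at 360/460 nm against DMSO controls; IC50 from concentration–activity curves.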

thrombin [2] = target: T1, thrombin; assay: Determination of the thrombin-inhibitory activity in plasma samples (ecarin-activated); type: biochemical; conditions: citrate plasma, ecarin activation, fluorogenic thrombin substrate; in some cases means of individual determinations
In short: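 Citrate plasma activated with ecarin (final 20 mU per reaction) in Ca buffer (Hepes, NaCl, CaCl2, PEG), with compound diluted from DMSO into water. Fluorogenic thrombin substrate at final 50 μmol/l; fluorescence (ex 360/em 465 nm) read each minute for 20 minutes, with buffer-only unstimulated control.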

Row | IC50 (thrombin [1]) | IC50 (thrombin [2]) | SMILES
1 | 28 nM | 94 nM | COc1cc(C(=O)N2CC(C)CCC2C2(O)CC2)cc2nc(NCc3cc(Cl)ccn3)oc12 (single isomer, unassigned) [Example 90, (2-{[(4-Chloropyridin-2-yl)methyl]amino}-7-methoxy-1,3-benzoxazol-5-yl) [2-(1-hydroxycyclopropyl)-5-methylpiperidin-1-yl]methanone]
2 | 1.9 nM | 8.8 nM | CC[C@@H]1COC(C)(CCO)CN1C(=O)c1cc(OC)c2oc(NCc3cc(Cl)ccn3)nc2c1 (single isomer, unassigned) [Example 29]
3 | 7.3 nM | 37 nM | COc1cc(C(=O)N2CC(C)(CC(C)O)OCC2(C)C)cc2nc(NCc3cc(Cl)ccn3)oc12 (racemic) [Example 34, (2-{[(4-Chloropyridin-2-yl)methyl]amino}-7-methoxy-1,3-benzoxazol-5-yl) [2-(2-hydroxypropyl)-2,5,5-trimethylmorpholin-4-yl]methanone]
4 | 17 nM | 27 nM | COc1cc(C(=O)N2CCCC2(C)C(=O)N2CCOCC2)cc2nc(NCc3cc(Cl)ccn3)oc12 (single isomer, unassigned) [Example 18, (2-{[(4-Chloropyridin-2-yl)methyl]amino}-7-methoxy-1,3-benzoxazol-5-yl) [2-methyl-2-(morpholin-4-ylcarbonyl)pyrrolidin-1-yl]methanone]
5 | 25 nM | 65 nM | COCC1COC(C)(CCO)CN1C(=O)c1cc(OC)c2oc(NCc3cc(Cl)ccn3)nc2c1 (stereo not drawn) [Example 30]
6 | 59 nM | 72 nM | COc1cc(C(=O)N2CC(C)OC[C@@H]2[C@@H](C)O)cc2nc(NCc3cc(Cl)ccn3)oc12 (stereo partly drawn) [Example 68, (2-{[(4-Chloropyridin-2-yl)methyl]amino}-7-methoxy-1,3-benzoxazol-5-yl){(5R)-5-[(1R)-1-hydroxyethyl]-2-methylmorpholin-4-yl}methanone]
7 | 6.2 nM | 44 nM | COc1cc(C(=O)N2CC(C)(CC(C)O)OC[C@H]2C)cc2nc(NC(C)c3cc(Cl)ccn3)oc12 (stereo partly drawn) [Example 26, (2-{[1-(4-Chloropyridin-2-yl)ethyl]amino}-7-methoxy-1,3-benzoxazol-5-yl)[(5R)-2-(2-hydroxypropyl)-2,5-dimethylmorpholin-4-yl]methanone]
8 | 1.7 nM | 11 nM | COc1cc(C(=O)N2CC(C)(CC(C)O)OCC2CF)cc2nc(NCc3cc(Cl)ccn3)oc12 (racemic) [Example 22, (2-{[(4-Chloropyridin-2-yl)methyl]amino}-7-methoxy-1,3-benzoxazol-5-yl) [5-(fluoromethyl)-2-(2-hydroxypropyl)-2-methylmorpholin-4-yl]methanone]
9 | 12 nM | 32 nM | CCC1C(=O)NC(C)CN1C(=O)c1cc(OC)c2oc(NCc3cc(Cl)ccn3)nc2c1 (single isomer, unassigned) [Example 81, 4-[(2-{[(4-Chloropyridin-2-yl)methyl]amino}-7-methoxy-1,3-benzoxazol-5-yl)carbonyl]-3-ethyl-6-methylpiperazin-2-one]
10 | 25 nM | 57 nM | COc1cc(C(=O)N2CC(C)OCC2CC(C)(C)O)cc2nc(NCc3cc(Cl)ccn3)oc12 (single isomer, unassigned) [Example 56, (2-{[(4-Chloropyridin-2-yl)methyl]amino}-7-methoxy-1,3-benzoxazol-5-yl) [5-(2-hydroxy-2-methylpropyl)-2-methylmorpholin-4-yl]methanone]
11 | 15 nM | 25 nM | CCO[C@@H]1CC(CO)N(C(=O)c2cc(OC)c3oc(NCc4cc(Cl)ccn4)nc3c2)C1 (stereo partly drawn) [Example 1, (2-{[(4-Chloropyridin-2-yl)methyl]amino}-7-methoxy-1,3-benzoxazol-5-yl)[(4R)-4-ethoxy-2-(hydroxymethyl)pyrrolidin-1-yl]methanone]
12 | 2.5 nM | 12 nM | COc1cc(C(=O)N2CC(C)(CCO)OC[C@H]2C)cc2nc(NCc3cc(Cl)ccn3)oc12 (single isomer, unassigned) [Example 24]
13 | 14 nM | 23 nM | COc1cc(C(=O)N2CC(C)OCC2C2CC(O)C2)cc2nc(NCc3cc(Cl)ccn3)oc12 (stereo not drawn) [Example 46, (2-{[(4-Chloropyridin-2-yl)methyl]amino}-7-methoxy-1,3-benzoxazol-5-yl) [5-(3-hydroxycyclobutyl)-2-methylmorpholin-4-yl]methanone]
14 | 38 nM | 74 nM | COc1cc(C(=O)N2CC(C)OCC2CCO)cc2nc(NCc3cc(Cl)ccn3)oc12 (racemic) [Example 70, (2-{[(4-Chloropyridin-2-yl)methyl]amino}-7-methoxy-1,3-benzoxazol-5-yl) [5-(2-hydroxyethyl)-2-methylmorpholin-4-yl]methanone]
15 | 24 nM | 53 nM | COc1cc(C(=O)N2CC(C)OCC2C2CC(O)C2)cc2nc(NCc3cc(Cl)ccn3)oc12 (single isomer, unassigned) [Example 49, (2-{[(4-Chloropyridin-2-yl)methyl]amino}-7-methoxy-1,3-benzoxazol-5-yl) [5-(3-hydroxycyclobutyl)-2-methylmorpholin-4-yl]methanone]
16 | 21 nM | 31 nM | COc1cc(C(=O)N2C[C@H](OC3CC3)C[C@H]2CO)cc2nc(NC(C)c3cc(Cl)ccn3)oc12 (stereo partly drawn) [Example 13, (2-{[1-(4-Chloropyridin-2-yl)ethyl]amino}-7-methoxy-1,3-benzoxazol-5-yl)[(2S,4R)-4-(cyclopropyloxy)-2-(hydroxymethyl)pyrrolidin-1-yl]methanone]
17 | 39 nM | 66 nM | CCO[C@@H]1CC(CO)N(C(=O)c2cc(OC)c3oc(NC(C)c4cc(Cl)ccn4)nc3c2)C1 (stereo partly drawn) [Example 4, (2-{[1-(4-Chloropyridin-2-yl)ethyl]amino}-7-methoxy-1,3-benzoxazol-5-yl)[(4R)-4-ethoxy-2-(hydroxymethyl)pyrrolidin-1-yl]methanone]
18 | 11 nM | 21 nM | COc1cc(C(=O)N2CC(C)(C)NC(=O)C2CC#N)cc2nc(NCc3cc(Cl)ccn3)oc12 (single isomer, unassigned) [Example 84, {1-[(2-{[(4-chloropyridin-2-yl)methyl]amino}-7-methoxy-1,3-benzoxazol-5-yl)carbonyl]-5,5-dimethyl-3-oxopiperazin-2-yl}acetonitrile]
19 | 13 nM | 24 nM | COc1cc(C(=O)N2CC(C)CCC2C2(O)CC2)cc2nc(NCc3cc(Cl)ccn3)oc12 (single isomer, unassigned) [Example 91, (2-{[(4-Chloropyridin-2-yl)methyl]amino}-7-methoxy-1,3-benzoxazol-5-yl) [2-(1-hydroxycyclopropyl)-5-methylpiperidine-1-yl]methanone]
20 | 20 nM | 30 nM | COc1cc(C(=O)N2CC(C)OCC2CC(C)(C)O)cc2nc(NCc3cc(Cl)ccn3)oc12 (single isomer, unassigned) [Example 57, (2-{[(4-Chloropyridin-2-yl)methyl]amino}-7-methoxy-1,3-benzoxazol-5-yl) [5-(2-hydroxy-2-methylpropyl)-2-methylmorpholin-4-yl]methanone]
21 | 37 nM | 44 nM | COc1cc(C(=O)N2CC(C)OCC2C(C)(C)O)cc2nc(NCc3cc(Cl)ccn3)oc12 (single isomer, unassigned) [Example 37, (2-{[(4-Chloropyridin-2-yl)methyl]amino}-7-methoxy-1,3-benzoxazol-5-yl) [5-(2-hydroxypropan-2-yl)-2-methylmorpholin-4-yl]methanone]
